Columns and labels:
Echinochloa crus-galli [1] = experiment: Post-emergence herbicidal effect; type: in vivo; conditions: visual scoring after about 3 weeks
Procedure, shortened: (§1)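 After growing for 2 to 3 weeks from seed in sandy loam, plants at the one-leaf stage get an aqueous spray of the formulated compound containing 0.2% wetting agent. Around three weeks later each pot is assessed by eye, expressed as percent effect compared with untreated plants.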

Avena fatua [2] = experiment: Post-emergence herbicidal effect; type: in vivo; conditions: 320 g/ha, visual scoring after about 3 weeks
Procedure, shortened: as §1

Setaria viridis [3] = experiment: Post-emergence herbicidal effect; type: in vivo; conditions: 320 g/ha (dose by row order of upper half), scoring after about 3 weeks
Procedure, shortened: as §1

Alopecurus myosuroides [4] = experiment: Post-emergence herbicidal effect; type: in vivo; conditions: 320 g/ha, visual scoring after about 3 weeks
Procedure, shortened: as §1

Lolium multiflorum [5] = experiment: Post-emergence herbicidal effect; type: in vivo; conditions: visual scoring after about 3 weeks
Procedure, shortened: as §1

Ipomoea purpurea = experiment: Post-emergence herbicidal effect; type: in vivo; conditions: scoring after about 3 weeks
Procedure, shortened: as §1

[6] = tested on: Triticum aestivum (spring); experiment: Pre-emergence herbicidal effect and crop plant compatibility; type: in vivo; conditions: 3 weeks
Procedure, shortened: (§2)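 Weed and crop seeds are sown in wood-fiber pots, covered with soil, then treated on the soil surface with aqueous suspensions or emulsions of WP or EC formulations. Application volume is 600 to 800 L/ha with 0.2% wetting agent. After 3 weeks in the greenhouse, damage is scored visually against untreated plants.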

Zea mays [7] = experiment: as above; type: in vivo; conditions: 3 weeks
Procedure, shortened: as §2

Oryza sativa [8] = experiment: Post-emergence herbicidal effect and crop plant compatibility; type: in vivo; conditions: visual scoring after about 3 weeks
Procedure, shortened: as §1

[9] = tested on: Triticum aestivum (spring); experiment: as above; type: in vivo; conditions: visual scoring after about 3 weeks
Procedure, shortened: as §1

Zea mays [10] = experiment: as above; type: in vivo; conditions: visual scoring after about 3 weeks
Procedure, shortened: as §1

Veronica persica = experiment: Pre-emergence herbicidal effect; type: in vivo; conditions: 3 weeks
Procedure, shortened: as §2

Polygonum convolvulus = experiment: Pre-emergence herbicidal effect; type: in vivo; conditions: 3 weeks
Procedure, shortened: as §2

Echinochloa crus-galli [11] = experiment: Pre-emergence herbicidal effect; type: in vivo; conditions: 3 weeks
Procedure, shortened: as §2

Matricaria inodora = experiment: Pre-emergence herbicidal effect; type: in vivo; conditions: 3 weeks
Procedure, shortened: as §2

Stellaria media = experiment: Pre-emergence herbicidal effect; type: in vivo; conditions: 3 weeks
Procedure, shortened: as §2

Viola tricolor = experiment: Pre-emergence herbicidal effect; type: in vivo; conditions: 3 weeks
Procedure, shortened: as §2

Setaria viridis [12] = experiment: Pre-emergence herbicidal effect; type: in vivo; conditions: 3 weeks
Procedure, shortened: as §2

Amaranthus retroflexus = experiment: Pre-emergence herbicidal effect; type: in vivo; conditions: 3 weeks
Procedure, shortened: as §2

Alopecurus myosuroides [13] = experiment: Pre-emergence herbicidal effect; type: in vivo; conditions: 3 weeks
Procedure, shortened: as §2

Lolium multiflorum [14] = experiment: Pre-emergence herbicidal effect; type: in vivo; conditions: 3 weeks
Procedure, shortened: as §2

Cyperus esculentus = experiment: Pre-emergence herbicidal effect; type: in vivo; conditions: 3 weeks
Procedure, shortened: as §2

[15] = logp (HCOOH), physicochemical characterization
Oryza sativa [16] = experiment: Pre-emergence herbicidal effect and crop plant compatibility; type: in vivo; conditions: 80 g/ha, 3 weeks
Procedure, shortened: as §2

Avena fatua [17] = experiment: Pre-emergence herbicidal effect; type: in vivo; conditions: 3 weeks
Procedure, shortened: as §2

Abutilon theophrasti = experiment: Pre-emergence herbicidal effect; type: in vivo; conditions: 320 g/ha, 3 weeks
Procedure, shortened: as §2

[18] = 320 g/ha (dose by row order of upper half)
[19] = 80 g/ha (dose by row order of upper half)

Row | SMILES | post-emergence efficacy ECHCG (Echinochloa crus-galli [1]; 320 g/ha) | ZEAMX herbicidal activity in percent (Zea mays [7]; 80 g/ha) | post-emergence efficacy ORYSA (Oryza sativa [8]; 80 g/ha) | post-emergence efficacy TRZAS ([9]; 80 g/ha) | post-emergence efficacy ZEAMX (Zea mays [10]; 80 g/ha) | VERPE herbicidal activity in percent (Veronica persica; 80 g/ha) | VERPE herbicidal activity in percent (Veronica persica; 320 g/ha) | POLCO herbicidal activity in percent (Polygonum convolvulus; 80 g/ha) | POLCO herbicidal activity in percent (Polygonum convolvulus; 320 g/ha) | ECHCG herbicidal activity in percent (Echinochloa crus-galli [11]; 80 g/ha) | ECHCG herbicidal activity in percent (Echinochloa crus-galli [11]; 320 g/ha) | MATIN herbicidal activity in percent (Matricaria inodora; 80 g/ha) | MATIN herbicidal activity in percent (Matricaria inodora; 320 g/ha) | STEME herbicidal activity in percent (Stellaria media; 80 g/ha) | STEME herbicidal activity in percent (Stellaria media; 320 g/ha) | VIOTR herbicidal activity in percent (Viola tricolor; 80 g/ha) | VIOTR herbicidal activity in percent (Viola tricolor; 320 g/ha) | SETVI herbicidal activity in percent (Setaria viridis [12]; 80 g/ha) | AMARE herbicidal activity in percent (Amaranthus retroflexus; 80 g/ha) | AMARE herbicidal activity in percent (Amaranthus retroflexus; 320 g/ha) | also measured
1 | CC(=O)c1cnc(N[C@H]2c3cc(C)ccc3C[C@@H]2C)nc1C [1.26] | 100% | 0% | 0% | 0% | 0% | 100% | 100% | 100% | 100% | 100% | 100% | 100% | 100% | 100% | 100% | 100% | 100% | 100% | 100% | 100% | post-emergence efficacy ECHCG (Echinochloa crus-galli [1]; 80 g/ha): 90%; post-emergence efficacy AVEFA (Avena fatua [2]): 80%; post-emergence efficacy SETVI (Setaria viridis [3]): 90%; post-emergence efficacy ALOMY (Alopecurus myosuroides [4]): 90%; post-emergence efficacy LOLMU (Lolium multiflorum [5]; 320 g/ha): 80%; post-emergence efficacy PHBPU (Ipomoea purpurea; [18]): 90%; TRZAS herbicidal activity in percent ([6]; 80 g/ha): 0%; ZEAMX herbicidal activity in percent (Zea mays [7]; 320 g/ha): 0%; post-emergence efficacy ORYSA (Oryza sativa [8]; 320 g/ha): 0%; post-emergence efficacy ZEAMX (Zea mays [10]; 320 g/ha): 0%; SETVI herbicidal activity in percent (Setaria viridis [12]; 320 g/ha): 100%; ALOMY herbicidal activity in percent (Alopecurus myosuroides [13]; 80 g/ha): 90%; ALOMY herbicidal activity in percent (Alopecurus myosuroides [13]; 320 g/ha): 90%; LOLMU herbicidal activity in percent (Lolium multiflorum [14]; 80 g/ha): 80%; LOLMU herbicidal activity in percent (Lolium multiflorum [14]; 320 g/ha): 100%; CYPES herbicidal activity in percent (Cyperus esculentus; 80 g/ha): 80%; CYPES herbicidal activity in percent (Cyperus esculentus; 320 g/ha): 80%; logp (HCOOH) [15]: solid; logp (HCOOH): 3.56; 1H-NMR (CDCl3, 400 MHZ, δ in ppm): 1.20 (d, 3H,
2 | O=C1CCCc2nc(N[C@@H]3CCCc4ccccc43)ncc21 [2.23] | 90% | 0% | 20% | 0% | 0% | 100% | 100% | 100% | 100% | 80% | 100% | 100% | 100% | 100% | 100% | 100% | 100% | 100% | 100% | 100% | post-emergence efficacy AVEFA (Avena fatua [2]): 100%; post-emergence efficacy LOLMU (Lolium multiflorum [5]; 320 g/ha): 100%; post-emergence efficacy PHBPU (Ipomoea purpurea; [18]): 80%; ORYSA herbicidal activity in percent (Oryza sativa [16]): 5%; TRZAS herbicidal activity in percent ([6]; 80 g/ha): 0%; post-emergence efficacy ORYSA (Oryza sativa [8]; 320 g/ha): 20%; post-emergence efficacy TRZAS ([9]; 320 g/ha): 0%; AVEFA herbicidal activity in percent (Avena fatua [17]; 320 g/ha): 90%; SETVI herbicidal activity in percent (Setaria viridis [12]; 320 g/ha): 100%; ALOMY herbicidal activity in percent (Alopecurus myosuroides [13]; 80 g/ha): 80%; ALOMY herbicidal activity in percent (Alopecurus myosuroides [13]; 320 g/ha): 100%; LOLMU herbicidal activity in percent (Lolium multiflorum [14]; 80 g/ha): 80%; LOLMU herbicidal activity in percent (Lolium multiflorum [14]; 320 g/ha): 100%; CYPES herbicidal activity in percent (Cyperus esculentus; 320 g/ha): 90%
3 | Cc1ccc2c(c1)[C@H](Nc1ncc3c(n1)CC(C)CC3=O)[C@@H](C)C2 (stereo partly drawn) [2.44] | 100% | 10% | 0% | 0% | 10% | 100% | 100% | 90% | 100% | 90% | 100% | 90% | 100% | 100% | 100% | 100% | 100% | 100% | 100% | 100% | post-emergence efficacy ECHCG (Echinochloa crus-galli [1]; 80 g/ha): 100%; post-emergence efficacy AVEFA (Avena fatua [2]): 90%; post-emergence efficacy PHBPU (Ipomoea purpurea; [19]): 100%; post-emergence efficacy PHBPU (Ipomoea purpurea; [18]): 100%; ORYSA herbicidal activity in percent (Oryza sativa [16]): 20%; post-emergence efficacy ORYSA (Oryza sativa [8]; 320 g/ha): 0%; post-emergence efficacy TRZAS ([9]; 320 g/ha): 0%; AVEFA herbicidal activity in percent (Avena fatua [17]; 80 g/ha): 0%; AVEFA herbicidal activity in percent (Avena fatua [17]; 320 g/ha): 80%; SETVI herbicidal activity in percent (Setaria viridis [12]; 320 g/ha): 100%; ALOMY herbicidal activity in percent (Alopecurus myosuroides [13]; 80 g/ha): 80%; ALOMY herbicidal activity in percent (Alopecurus myosuroides [13]; 320 g/ha): 100%; LOLMU herbicidal activity in percent (Lolium multiflorum [14]; 80 g/ha): 100%; LOLMU herbicidal activity in percent (Lolium multiflorum [14]; 320 g/ha): 100%; logp (HCOOH) [15]: oily; logp (HCOOH): 3.90;
4 | O=C1CCCc2nc(N[C@@H]3CCCc4c(F)cccc43)ncc21 [2.13] | 100% | 0% | 0% | 10% | 10% | 100% | 100% | 100% | 100% | 100% | 100% | 100% | 100% | 100% | 100% | 100% | 100% | 100% | 100% | 100% | post-emergence efficacy ECHCG (Echinochloa crus-galli [1]; 80 g/ha): 90%; post-emergence efficacy SETVI (Setaria viridis [3]): 100%; post-emergence efficacy ALOMY (Alopecurus myosuroides [4]): 90%; post-emergence efficacy PHBPU (Ipomoea purpurea; [18]): 100%; TRZAS herbicidal activity in percent ([6]; 80 g/ha): 0%; TRZAS herbicidal activity in percent ([6]; 320 g/ha): 10%; post-emergence efficacy ORYSA (Oryza sativa [8]; 320 g/ha): 0%; post-emergence efficacy TRZAS ([9]; 320 g/ha): 20%; AVEFA herbicidal activity in percent (Avena fatua [17]; 320 g/ha): 90%; ALOMY herbicidal activity in percent (Alopecurus myosuroides [13]; 320 g/ha): 100%; LOLMU herbicidal activity in percent (Lolium multiflorum [14]; 320 g/ha): 100%; CYPES herbicidal activity in percent (Cyperus esculentus; 80 g/ha): 100%; CYPES herbicidal activity in percent (Cyperus esculentus; 320 g/ha): 100%
5 | Cc1ccc2c(c1)[C@H](Nc1ncc3c(n1)CCCC3=O)[C@@H](C)C2 [2.43] | 90% | 20% | 10% | 10% | 0% | 100% | 100% | 100% | 100% | 100% | 100% | 100% | 100% | 100% | 100% | 100% | 100% | 90% | 100% | 100% | post-emergence efficacy ECHCG (Echinochloa crus-galli [1]; 80 g/ha): 90%; post-emergence efficacy AVEFA (Avena fatua [2]): 100%; post-emergence efficacy SETVI (Setaria viridis [3]): 80%; post-emergence efficacy LOLMU (Lolium multiflorum [5]; 80 g/ha): 80%; post-emergence efficacy LOLMU (Lolium multiflorum [5]; 320 g/ha): 100%; post-emergence efficacy PHBPU (Ipomoea purpurea; [19]): 80%; TRZAS herbicidal activity in percent ([6]; 80 g/ha): 0%; post-emergence efficacy TRZAS ([9]; 320 g/ha): 10%; AVEFA herbicidal activity in percent (Avena fatua [17]; 320 g/ha): 100%; SETVI herbicidal activity in percent (Setaria viridis [12]; 320 g/ha): 100%; ALOMY herbicidal activity in percent (Alopecurus myosuroides [13]; 80 g/ha): 100%; ALOMY herbicidal activity in percent (Alopecurus myosuroides [13]; 320 g/ha): 100%; LOLMU herbicidal activity in percent (Lolium multiflorum [14]; 80 g/ha): 100%; LOLMU herbicidal activity in percent (Lolium multiflorum [14]; 320 g/ha): 100%; CYPES herbicidal activity in percent (Cyperus esculentus; 320 g/ha): 80%; ABUTH herbicidal activity in percent (Abutilon theophrasti): 100%; logp (HCOOH) [15]: solid; logp (HCOOH): 3.45; 1H-NMR (CDCl3, 400 MHZ, δ in ppm): 1.25 (t, 3H, CH3);

From US10183914B2 (BAYER CROPSCIENCE AKTIENGESELLSCHAFT, priority 2014, dated 2019)
